In patent US20260034200A1, “TOLEROGENIC PEPTIDES” (University of Birmingham, priority 2022, published 2026):
Each block holds one molecule with its values, some of them ahead of it. Ends that are not written are not given here.

Experiments:
[1] = tested on: GAD65 P10-specific T-cell hybridomas; experiment: T-cell hybridoma screen with Priess cells as APCs, IL-2 ELISA; format: cell-based, mouse; settings: for epitope mapping by hybridoma response: 15-mers and truncated peptides, hybridomas SC3 and SC22, 48 h co-culture
Description: HLA-DR4 transgenic mice were injected subcutaneously with Complete Freund's Adjuvant (CFA) and 100 μg of GAD65 P10 30-mer. After 10 days, splenocytes were isolated and re-stimulated with GAD65 P10 30-mer for a further 4-5 days before fusion with hypoxanthine-aminopterin-thymidine (HAT) sensitive BW5147 cells using polyethylene glycol (PEG). Fused hybridomas were expanded in HAT selection media before antigen-specific screening. Co-cultures of 1×10^5 hybridomas and 2×10^5 Priess cells (an Epstein-Barr Virus (EBV) transformed DR4 (DRB1*04:01) expressing human cell line (ECACC 86052111)) as antigen presenting cells (APCs) were incubated for 48 h in a 96-well plate with peptide, whole GAD65 protein, or media only. Antigen-specific responses were determined by IL-2 secretion into culture supernatant by ELISA assay (BioLegend 431004). Hybridomas that proliferated in response to both GAD65 protein and GAD65 30-mer were single cell cloned by limiting dilution.
Six 15-mers that spanned the parent 30-mer amino acid sequence were generated by 3 amino acid shifts from the N-terminus toward the C-terminus.

Solubility in PBS = format: physicochemical
Description: Peptides were synthesized by GL Biochem (Shanghai) Ltd or Genscript (Leiden, The Netherlands). Peptides were >90% purity, resuspended from lyophilised powder in either 100% v/v dimethyl sulfoxide (DMSO) for 30-mers or PBS for soluble peptides. GAD65 protein was synthesised by Biologics Corporation. Purified protein derivative (PPD; Prionics; 7600060) was used at 300 IU/mL. Keyhole limpet haemocyanin (KLH; ThermoFisher Scientific; 77600) was used at 20 μg/mL.
Iterations designed around the core minimal epitope included retention of non-critical residues and/or addition of multiple lysine residues to both the N- and C-termini (FIG. 3E). […] Although P10.5.C.6K contains only the critical core epitope with additional lysine residues, the re-inclusion of the single non-critical alanine at the C-terminus (P10.5.C+1.6K), increased the potency of the single-clone hybridoma response by 10-fold (FIG. 3F).

[2] = tested on: MHC class II molecules on fixed or non-fixed HLA-DR4 transgenic mouse splenocytes (hybridoma SC3 readout); experiment: Fixed APC T-cell hybridoma screen; format: cell-based; settings: co-culture with formaldehyde fixed and non-fixed HLA-DR4 splenocytes, 48 h
Description: Splenocytes from HLA-DR4 transgenic mice were formaldehyde fixed by the following protocol performed at room temperature; 5 min incubation with 0.5% w/v formaldehyde in PBS at 1×10^6 cells/mL quenched by addition of an equal volume of 0.4 M glycine in PBS solution for a further 5 min, before three washes with cold PBS. T-cell hybridoma screens were set up using 1×10^5 hybridomas and either 2×10^5 formaldehyde fixed APCs or 2×10^5 non-fixed APCs for 48 h co-culture with stimulant or control and responses measured by IL-2 secretion.
(§1) The next step was to test if GAD65 P10.5.C+1.6K (P10Sol; SEQ ID NO 23) could bind to: (i) MHC class II molecules without antigen processing and, (ii) to steady-state CD11c^+ APCs. These properties are good indicators of whether a peptide can induce tolerance and be characterised as an apitope (Shepard et al., 2021). Formaldehyde fixation of splenocytes inhibits antigen processing and so to test whether GAD65 P10Sol could bind directly to cell-surface MHC class II without antigen processing, GAD65 P10-specific hybridoma SC3 was co-cultured with fixed or non-fixed splenocytes from HLA-DR4 transgenic mice. […] To test whether P10Sol could bind to steady-state CD11c^+ APCs in vivo, HLA-DR4 transgenic mice were injected with 80 μg of P10Sol or PBS, with CD11c^+ splenocytes isolated 1 h later and co-cultured with GAD65 P10 hybridomas SC3 or SC22. […]

steady-state CD11c+ APCs = experiment: Steady state CD11c+ peptide binding assay; format: in vivo, HLA-DR4 transgenic mice; settings: antigen added exogenously to the in vitro culture
Description: HLA-DR4 transgenic mice were injected subcutaneously with 80 μg of GAD65 P10.5.C+1.6K (GAD65 P10Sol) peptide, before isolation of CD11c^+ splenocytes 1 h later CD11c^+ positive selection kit (Miltenyi; 130-125-835). T-cell hybridoma responses were measured by secreted IL-2 after a 48 h co-culture of 0.5×10^5 CD11c^+ cells with 1×10^5 GAD65 P10-specific hybridomas with or without exogenous antigen added in vitro.
as §1

[3] = target: T1, HLA-DR4 MHC class II (HLA-DRA*0101, HLA-DRB1*0401) (human, UniProt P01903 26-254; P01911 30-266, limits assumed); experiment: cell-based or functional assay
T1 MHC II alpha: not shown
T1 MHC II beta: not shown

[4] = target: TCRs of individuals with type 1 diabetes; experiment: cell-based or functional assay
[5] = target: T1, HLA-DR4 MHC class II (HLA-DRA*0101, …); experiment: IL-2 response of hybridoma SC3 with formaldehyde-fixed or non-fixed HLA-DR4 transgenic splenocytes
Excerpt: as §1, with “CD11c⁺” for “CD11c^+”, “mice. Response to whole GAD65 protein required antigen processing from non-fixed splenocytes, whereas both GAD65 P10 30-mer and GAD65 P10Sol (SEQ ID NO 23) induced strong IL-2 responses from hybridoma SC3 when co-cultured with both fixed and non-fixed splenocytes (FIG. 3G).” for “mice.”

Molecule: KHKWKLSGVERANSV [P10.5 15-mer]
- epitope mapping by hybridoma response [1]: responsive 15-mer

Molecule: WKLSGVER [Peptide P10.5.C]
- epitope mapping by hybridoma response [1]: minimal core epitope

Molecule: glutamate decarboxylase 65 (GAD65) [GAD65 protein, reference compound]
- IL-2 response from hybridoma SC3 [2]: required antigen processing from non-fixed splenocytes
- IL-2 response of P10-specific hybridomas to CD11c+ cells from PBS injected mice (steady-state CD11c+ APCs): observed
- hybridoma IL-2 response ([1]; hybridoma multi-clone 6 with HLA-DRB1*04:01 expressing APCs): could respond

Next, values leading:

- solubility in PBS (Solubility in PBS): highly soluble
Molecule: KKKWKLSGVERAKKK [Peptide P10Sol, KKKWKLSGVERAKKK]

- solubility in PBS (Solubility in PBS): highly soluble
Molecule: KKKWKLSGVERKKK [Peptide P10.5.C.6K, KKKWKLSGVERKKK]

- potency of the single-clone hybridoma IL-2 response with Priess cells, against P10.5.C.6K (SEQ ID NO 22) [3]: 10 fold
- FAIM+ (CD25+ CD71+ CTVmid CD4 T-cell) response of T1D patient PBMCs; share of P10 30-mer responders that also responded to P10Sol [4]: 38%
Molecule: KKKWKLSGVERAKKK [GAD65 P10.5.C+1.6K (P10Sol)]

- binding result [5]: binds
B1: GAD65 P10 30-mer (peptide)
peptide: DAAWGGGLLMSRKHKWKLSGVERANSVTWN
notes: Synthetic 30-residue fragment of human GAD65
